How the values were obtained:
Assay type in all cases: in vivo, human
[1] = HPN-100-012 switch-over study, pharmacokinetics of HPN-100 and NaPBA in pediatric UCD patients; conditions: HPN-100-012 (N = 15), TID with meals, arithmetic mean
Description: HPN-100-012, an open-label, fixed sequence, switch-over study of the safety, PK and efficacy of HPN-100 compared to NaPBA in patients with UCDs, with a 12-month safety extension part. The switch-over part of the study and the 12-month safety extension are complete. The switch-over part was conducted at 7 U.S. centers and enrolled 15 pediatric UCD patients between 29 days and <6 year of age, all of whom completed the study. After review of all the safety data by the DSMB, 8 additional subjects were enrolled in the study after the switch-over phase was completed. The primary efficacy endpoint was the 24-hour AUC (area under the curve) for blood ammonia on Day 1 compared with Day 10.
(§1) The pharmacokinetics of the short term studies can be summarized as follows. Mean exposure levels of HPN-100 metabolites PBA, PAA, and PAGN after doses of HPN-100 and NaPBA with meals (TID) in pediatric (29 days to 17 years of age) UCD patients in HPN-100-005 and HPN-100-012 studies are summarized below. The mean exposure to PBA, the parent metabolite, and mean exposure to PAGN, the terminal metabolite, show no systematic variation across age groups, while PAA exposure tended to decrease with increasing age, a finding consistent with those from population PK modeling which indicate that the rate of clearance/metabolism of PAA varies directly with body size. While systemic metabolite exposure, assessed as peak plasma concentration (Cmax) or AUC, is generally similar for HPN-100 and NaPBA, the minimum concentration (Cmin-ss) was higher—and/or percent-fluctuation less—for plasma PAGN, a finding consistent with slower gastrointestinal absorption of PBA when administered orally as HPN-100.

[2] = HPN-100-005 pharmacokinetics of HPN-100 and NaPBA in pediatric UCD patients; conditions: HPN-100-005 (N = 11)
Text: as §1

[3] = tested on: blood ammonia in pediatric patients with UCDs; test: HPN-100-012 open-label fixed sequence switch-over study, blood ammonia control
Text: HPN-100-012, an open-label, fixed sequence, switch-over study of the safety, PK and efficacy of HPN-100 compared to NaPBA in patients with UCDs, with a 12-month safety extension part. […] After review of all the safety data by the DSMB, 8 additional subjects were enrolled in the study after the switch-over phase was completed. The primary efficacy endpoint was the 24-hour AUC (area under the curve) for blood ammonia on Day 1 compared with Day 10.

[4] = pediatric UCD patients, TID with meals, arithmetic mean

Plasma PAA % Fluctuation [1]: 1289%
Plasma PAA AUC0-24 [1]: 1458 µg·h/mL
Plasma PAA CLss/F [1]: 94249 mL/min
Plasma PAGN CLss/F [1]: 14360 mL/min
Plasma PBA CLss/F [1]: 112093 mL/min
Plasma PBA Cmin-ss [1]: 993 ng/mL
Plasma PAA CLss/F [2, 4]: 34391 mL/min
Plasma PBA CLss/F [2, 4]: 145463 mL/min
Plasma PAA Cmin-ss ([2]; pediatric UCD patients, TID with meals, arithmetic mean (CV %)): 674 ng/mL
U-PAGN Ae0-12 ([2]; urinary PAGN excreted 0-12 h, arithmetic mean): 7098020 µg
U-PAGN Ae12-24 ([2]; urinary PAGN excreted 12-24 h, arithmetic mean): 5414406 µg
Compound: O=C([O-])CCCc1ccccc1.[Na+] [NaPBA, sodium phenylbutyrate]
U-PAGN Ae ([2]; urinary PAGN excreted, arithmetic mean): 12512426 µg
Mean blood ammonia at the 12-hour time point ([3]; HPN-100 Day 10, NaPBA Day 1, highest value for both treatments): 41.03 µmol/L
Mean blood ammonia at the 24-hour time point ([3]; NaPBA Day 1, lowest value on NaPBA): 34.66 µmol/L

From patent US20170348269A1, “TREATMENT OF UREA CYCLE DISORDERS IN NEONATES AND INFANTS” (Horizon Therapeutics, LLC, priority 2016, published 2017)
